Results as given in the NIST ThermoML archive (doi:10.1021/je800110r).

Conditions: 313.14 K, Liquid, Vibrating tube method

CCCCCCCCCC [decane]
Conditions | mass density [kg/m3]
24173 kPa | 733.5
24196 kPa | 733.5
24223 kPa | 733.4
24245 kPa | 733.5
24268 kPa | 733.6
24304 kPa | 733.6
24331 kPa | 733.6
24351 kPa | 733.6
24391 kPa | 733.7
24420 kPa | 733.7
24455 kPa | 733.7
24491 kPa | 733.7
24527 kPa | 733.7
24559 kPa | 733.8
24591 kPa | 733.7
24632 kPa | 733.9
24668 kPa | 733.9
24704 kPa | 733.9
24729 kPa | 733.9
24758 kPa | 734
24787 kPa | 733.9
24824 kPa | 733.9
24854 kPa | 734
24889 kPa | 734
24918 kPa | 734.1
24952 kPa | 734
24983 kPa | 734
25018 kPa | 734.1
25049 kPa | 734.2
25080 kPa | 734.1
25107 kPa | 734.2
25129 kPa | 734.2
25161 kPa | 734.2
25188 kPa | 734.2
25215 kPa | 734.2
25255 kPa | 734.3
25287 kPa | 734.3
25323 kPa | 734.3
25351 kPa | 734.4
25387 kPa | 734.3
25415 kPa | 734.3
25452 kPa | 734.5
25489 kPa | 734.4
25558 kPa | 734.6
25618 kPa | 734.5
25650 kPa | 734.6
25684 kPa | 734.6
25712 kPa | 734.5
25750 kPa | 734.5
25778 kPa | 734.6
25811 kPa | 734.6
25840 kPa | 734.7
25878 kPa | 734.8
27095 kPa | 735.5
27127 kPa | 735.5
27155 kPa | 735.6
27178 kPa | 735.5
27206 kPa | 735.6
27239 kPa | 735.7
27267 kPa | 735.7
27295 kPa | 735.5
27328 kPa | 735.7
27370 kPa | 735.7
27403 kPa | 735.7
27432 kPa | 735.8
27465 kPa | 735.8
27498 kPa | 735.7
27527 kPa | 735.8
27560 kPa | 735.9
27599 kPa | 735.8
27627 kPa | 735.8
27661 kPa | 735.9
27685 kPa | 735.8
27728 kPa | 735.9
27767 kPa | 736
27811 kPa | 736
27850 kPa | 735.9
27898 kPa | 736.1
27932 kPa | 736.2
29093 kPa | 736.8
29131 kPa | 736.9
29195 kPa | 737
29243 kPa | 737
29286 kPa | 736.9
29330 kPa | 737.1
29369 kPa | 737.1
29414 kPa | 737
29452 kPa | 737.1
29496 kPa | 737.2
29524 kPa | 737.1
29568 kPa | 737.2
29611 kPa | 737.2
29645 kPa | 737.3
29684 kPa | 737.2
29729 kPa | 737.2
29763 kPa | 737.3
29809 kPa | 737.3
29845 kPa | 737.3
29878 kPa | 737.3
29923 kPa | 737.4
29963 kPa | 737.5
30003 kPa | 737.5
30049 kPa | 737.5
30089 kPa | 737.6
30124 kPa | 737.6
30171 kPa | 737.5
30212 kPa | 737.5
30248 kPa | 737.6
30281 kPa | 737.7
30319 kPa | 737.6
30352 kPa | 737.7
30401 kPa | 737.8
30433 kPa | 737.7
30466 kPa | 737.8
30504 kPa | 737.8
30542 kPa | 737.8
30575 kPa | 737.8
30614 kPa | 737.9
31015 kPa | 738.1
31049 kPa | 738
31124 kPa | 738.2
31165 kPa | 738.2
31205 kPa | 738.3
31251 kPa | 738.3
31303 kPa | 738.3
31332 kPa | 738.3
31379 kPa | 738.3
32818 kPa | 739.4
32847 kPa | 739.2
32891 kPa | 739.4
32920 kPa | 739.3
32965 kPa | 739.4
33007 kPa | 739.5
33037 kPa | 739.5
33079 kPa | 739.5
33103 kPa | 739.6
33135 kPa | 739.5
